Data as given in US7838674B2, “Tetracyclic lactame derivatives” (Novartis AG, priority 2007, dated 2010).
Where a name gives a salt, the structure may show the parent alone.

Biological target: T1, MAPKAPK2 enzyme (HIS-MK2, Invitrogen PV4019) (Homo sapiens, UniProt P49137)
T1 construct: His; purchased Invitrogen PV4019
Experiment: Alternative MAPKAPK2 assay (Caliper microfluidic mobility shift, HSP27-peptide)
Format: biochemical
Conditions: HIS-MK2 0.013 nM, ATP 10 μM, 60 min at 30° C.

T1 sequence (P49137 whole entry): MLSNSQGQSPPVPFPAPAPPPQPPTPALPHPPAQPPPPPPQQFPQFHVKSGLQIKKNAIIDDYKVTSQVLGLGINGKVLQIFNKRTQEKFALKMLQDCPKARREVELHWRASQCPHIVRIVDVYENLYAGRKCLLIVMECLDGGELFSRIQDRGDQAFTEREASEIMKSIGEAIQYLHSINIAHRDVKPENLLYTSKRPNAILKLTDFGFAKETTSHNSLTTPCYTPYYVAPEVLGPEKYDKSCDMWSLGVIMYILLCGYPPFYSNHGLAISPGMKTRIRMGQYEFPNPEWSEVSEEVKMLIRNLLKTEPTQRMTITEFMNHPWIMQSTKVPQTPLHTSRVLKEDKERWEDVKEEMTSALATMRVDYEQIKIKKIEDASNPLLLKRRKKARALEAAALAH

| Structure (SMILES) | IC50 [nM] |
| --- | --- |
| Cn1c2c(c3c1C1(CNC1)CNC3=O)CCc1cnc(-c3ccc(F)nc3)cc1-2 [Example 162, 2-(3-Aminomethyl-azetidin-3-yl)-8-(6-fluoro-pyridin-3-yl)-1-methyl-4,5-dihydro-1H-pyrrolo[2,3-f]isoquinoline-3-carboxylic acid lactam hydrochloride] | 20 |
| O=C1NCC2(CC2)c2[nH]c3c(c21)CCc1cnc(-c2ccc4c(c2)OCCO4)cc1-3 [Example 114] | 41 |
| COc1cccc(-c2ncc3c(n2)-c2c(c4c(n2C)CC2(CNC2)NC4=O)CC3)c1 [Example 137, 2-(3-Amino-azetidin-3-ylmethyl)-8-(3-methoxy-phenyl)-1-methyl-4,5-dihydro-1H-1,7,9-triaza-cyclopenta[a]naphthalene-3-carboxylic acid lactam hydrochloride] | 49 |
| O=C1NC2(CC2)Cc2[nH]c3c(c21)CCc1cnc(-c2ccc4c(c2)OCCO4)cc1-3 [Example 66, 2-(1-Amino-cyclopropylmethyl)-8-(2,3-dihydro-benzo[1,4]dioxin-6-yl)-4,5-dihydro-1H-pyrrolo[2,3-f]isoquinoline-3-carboxylic acid lactam] | 60 |
| CCOc1ccc(-c2ncc3c(n2)-c2c(c4c(n2C)CC2(CNC2)NC4=O)CC3)cc1 [Example 59, 2-(3-Amino-azetidin-3-ylmethyl)-8-(4-ethoxyphenyl)-1-methyl-4,5-dihydro-1H-1,7,9-triaza-cyclopenta[a]naphthalene-3-carboxylic acid lactam hydrochloride] | 13 |
| Cc1ccc(-c2cc3c(cn2)CCc2c4c(n(C)c2-3)CC2(CNC2)NC4=O)cn1 [Example 151, 2-(3-Amino-azetidin-3-ylmethyl)-8-(6-methyl-pyridin-3-yl)-1-methyl-4,5-dihydro-1H-pyrrolo[2,3-f]isoquinoline-3-carboxylic acid lactam hydrochloride] | 35 |
| COc1ccc(-c2cc3c(cn2)CCc2c4c(n(C)c2-3)C2(CNC4=O)CN(C)C2)cc1 [Example 164, 2-(3-Aminomethyl-1-methyl-azetidin-3-yl)-8-(4-methoxy-phenyl)-1-methyl-4,5-dihydro-1H-pyrrolo[2,3-f]isoquinoline-3-carboxylic acid lactam] | 22 |
| Cc1ccc(-c2cc3c(cn2)CCc2c-3[nH]c3c2C(=O)NC2(CC2)C3)c(F)n1 [Example 158, 2-(1-Amino-cyclopropylmethyl)-8-(2-fluoro-6-methyl-pyridin-3-yl)-4,5-dihydro-1H-pyrrolo[2,3-f]isoquinoline-3-carboxylic acid lactam] | 51 |
| COc1ccc(-c2cc3c(cn2)CCc2c4c(n(C)c2-3)C2(CNC2)CNC4=O)cc1 [Example 163, 2-(3-Aminomethyl-azetidin-3-yl)-8-(4-methoxy-phenyl)-1-methyl-4,5-dihydro-1H-pyrrolo[2,3-f]isoquinoline-3-carboxylic acid lactam hydrochloride] | 6 |
| N#Cc1cc(-c2cc3c(cn2)CCc2c-3[nH]c3c2C(=O)NCC32CC2)ccc1F [Example 115] | 36 |
| COc1ccc(-c2cc3c(cn2)CCc2c-3[nH]c3c2C(=O)NCC32CC2)cn1 [Example 54, 2-(1-Aminomethyl-cyclopropyl)-8-(6-methoxy-pyridin-3-yl)-4,5-dihydro-1H-pyrrolo[2,3-f]isoquinoline-3-carboxylic acid lactam] | 22 |
| COc1ccc(-c2cc3c(cn2)CCc2c4c(n(C)c2-3)CC2(CN(C)C2)NC4=O)cn1 [Example 142, 2-(3-Amino-1-methyl-azetidin-3-ylmethyl)-8-(6-methoxy-pyridin-3-yl)-1-methyl-4,5-dihydro-1H-pyrrolo[2,3-f]isoquinoline-3-carboxylic acid lactam] | 34 |
| COc1ccc(-c2cc3c(cn2)CCc2c-3[nH]c3c2C(=O)N[C@@H]2CC[C@H]32)cc1 (racemic) [Example 50, (+)-2-(2-Amino-cyclobutyl)-8-(4-methoxy-phenyl)-4,5-dihydro-1H-pyrrolo[2,3-f]isoquinoline-3-carboxylic acid lactam] | 21 |

More lines, now with the values ahead:

| IC50 [nM] | Structure (SMILES) |
| --- | --- |
| 20 | COc1ccc(-c2ncc3c(n2)-c2c(c4c(n2C)C2(CNC4=O)CN(C)C2)CC3)cc1 [Example 219, 2-(3-Aminomethyl-1-methyl-azetidin-3-yl)-8-(4-methoxy-phenyl)-1-methyl-4,5-dihydro-1H-1,7,9-triaza-cyclopenta[a]naphthalene-3-carboxylic acid lactam] |
| < 3 | CC(C)Oc1ccc(-c2cc3c(cn2)CCc2c-3[nH]c3c2C(=O)NCC32CNC2)cn1 [Example 186, 2-(3-Aminomethyl-azetidin-3-yl)-8-(6-isopropoxy-pyridin-3-yl)-4,5-dihydro-1H-pyrrolo[2,3-f]isoquinoline-3-carboxylic acid lactam hydrochloride] |
| 6 | COc1ccc(-c2ncc3c(n2)-c2[nH]c4c(c2CC3)C(=O)NC2(CC2)C42CNC2)cc1 [Example 214, 2-[3-(1-Amino-cyclopropyl)-azetidin-3-yl]-8-(4-methoxy-phenyl)-4,5-dihydro-1H-1,7,9-triaza-cyclopenta[a]naphthalene-3-carboxylic acid lactam hydrochloride] |
| 45 | CN1CC2(C1)c1c(c3c(n1C)-c1cc(-c4cccc(F)c4)ncc1CC3)C(=O)NC21CC1 [Example 210, 2-[3-(1-Amino-cyclopropyl)-1-methyl-azetidin-3-yl]-8-(3-fluoro-phenyl)-1-methyl-4,5-dihydro-1H-pyrrolo[2,3-f]isoquinoline-3-carboxylic acid lactam] |
| < 3 | CN1CC2(CNC(=O)c3c2[nH]c2c3CCc3cnc(-c4cccc(Cl)c4)cc3-2)C1 [Example 188, 2-[3-Aminomethyl-1-methyl-azetidin-3-yl]-8-(3-chloro-phenyl)-4,5-dihydro-1H-pyrrolo[2,3-f]isoquinoline-3-carboxylic acid lactam] |
| < 3 | O=C1NC2(CC2)C2(CNC2)c2[nH]c3c(c21)CCc1cnc(-c2ccc(C(F)(F)F)nc2)cc1-3 [Example 211, 2-[3-(1-Amino-cyclopropyl)-azetidin-3-yl]-8-(6-trifluoromethyl-pyridin-3-yl)-4,5-dihydro-1H-pyrrolo[2,3-f]isoquinoline-3-carboxylic acid lactam hydrochloride] |
| 21 | O=C(NCc1ccccc1)c1ccc(-c2cc3c(cn2)CCc2c-3[nH]c3c2C(=O)NC2(CC2)C3)o1 [Example 282, 5-(9,9-Spirocyclopropyl-7-oxo-6,7,8,9,10,11-hexahydro-5H-3,8,11-triaza-benzo[a]fluoren-2-yl)-furan-2-carboxylic acid benzylamide] |
| 9 | CC(C)Oc1ccc(-c2cc3c(cn2)CCc2c4c(n(C)c2-3)C2(CNC4=O)CN(C)C2)cn1 [Example 183, 2-(3-Aminomethyl-1-methyl-azetidin-3-yl)-8-(6-isopropoxy-pyridin-3-yl)-1-methyl-4,5-dihydro-1H-pyrrolo[2,3-f]isoquinoline-3-carboxylic acid lactam] |
| 9 | N#Cc1cc(-c2cc3c(cn2)CCc2c-3[nH]c3c2C(=O)NCC32CC2)ccc1N1CCN(CCO)CC1 [Example 315, 2-[4-(2-Hydroxy-ethyl)-piperazin-1-yl]-10-spirocyclopropyl-5-(7-oxo-6,7,8,9,10,11-hexahydro-5H-3,8,11-triaza-benzo[a]fluoren-2-yl)-benzonitrile] |
| 65 | CC(C)Oc1ccc(-c2cc3c(cn2)CCc2c-3[nH]c3c2C(=O)NC2(CC2)C3)cn1 [Example 235, 2-(1-Amino-cyclopropylmethyl)-8-(6-isopropoxy-pyridin-3-yl)-4,5-dihydro-1H-pyrrolo[2,3-f]isoquinoline-3-carboxylic acid lactam] |
| 8 | COc1ccc(-c2ncc3c(n2)-c2[nH]c4c(c2CC3)C(=O)NCC42CNC2)cc1F [Example 268, 2-(3-Aminomethyl-azetidin-3-yl)-8-(3-fluoro-4-methoxy-phenyl)-4,5-dihydro-1H-1,7,9-triaza-cyclopenta[a]naphthalene-3-carboxylic acid lactan hydrochloride] |
| 3 | Cn1c2c(c3c1C1(CNC1)C1(CC1)NC3=O)CCc1cnc(-c3cccc(F)c3)cc1-2 [Example 209, 2-[3-(1-Amino-cyclopropyl)-azetidin-3-yl]-8-(3-fluoro-phenyl)-1-methyl-4,5-dihydro-1H-pyrrolo[2,3-f]isoquinoline-3-carboxylic acid lactam hydrochloride] |
| 51 | CN1CCN(c2c(F)cc(-c3cc4c(cn3)CCc3c-4[nH]c4c3C(=O)NCC43CC3)cc2C#N)CC1 [Example 317, 3-Fluoro-2-(4-methyl-piperazin-1-yl)-10-spirocyclopropyl-5-(7-oxo-6,7,8,9,10,11-hexahydro-5H-3,8,11-triaza-benzo[a]fluoren-2-yl)-benzonitrile] |
| 18 | COc1ccc(-c2ncc3c(n2)-c2[nH]c4c(c2CC3)C(=O)NC2(CC2)C42CN(C)C2)cc1 [Example 215, 2-[3-(1-Amino-cyclopropyl)-1-methyl-azetidin-3-yl]-8-(4-methoxy-phenyl)-4,5-dihydro-1H-1,7,9-triaza-cyclopenta[a]naphthalene-3-carboxylic acid lactam] |
| 17 | Cn1c2c(c3c1-c1nc(-c4cncc(C(=O)NCc5ccccc5)c4)ncc1CC3)C(=O)NC1(CNC1)C2 [Example 296, 2-(3-Amino-azetidin-3-ylmethyl)-8-(3-benzylcarbamoyl-3-pyridyl)-1-methyl-4,5-dihydro-1H-1,7,9-triaza-cyclopenta[a]naphthalene-3-carboxylic acid lactam hydrochloride] |
| < 3 | CCN1CC2(CNC(=O)c3c2[nH]c2c3CCc3cnc(-c4cccc(C(=O)NCc5ccccc5)c4)cc3-2)C1 [Example 263, 2-(3-Aminomethyl-1-ethyl-azetidin-3-yl)-8-(3-benzylcarbamoyl-phenyl)-4,5-dihydro-1H-pyrrolo[2,3-f]isoquinoline-3-carboxylic acid lactam] |
| 42 | COc1ncc(-c2cc3c(cn2)CCc2c-3[nH]c3c2C(=O)NC2(CC2)C32CC2)cc1F [Example 194, 2-(1′-Amino-bicyclopropyl-1-yl)-8-(5-fluoro-6-methoxy-pyridin-3-yl)-4,5-dihydro-1H-pyrrolo[2,3-f]isoquinoline-3-carboxylic acid lactam] |
